Source: ChEMBL document CHEMBL1201862, “PubChem BioAssay data set” (2004)
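Method: 48-hour compound exposure of cells in 96-well plates, five concentrations, linear interpolation of endpoints. GI50 = concentration required for 50% inhibition of growth.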 Calls of active or inactive are those of the source. No stated cut-off is given here; in the data, active = GI50 up to about 1.1 µM and inactive = higher.

Key:
Experiment in all cases: NCI anticancer screen, dose series, 48 h
A498 = system: A498
COLO 205 = system: COLO 205
HT-29 = system: HT-29
K562 = system: K562
NCI-H226 = system: NCI-H226
NCI-H460 = system: NCI-H460
OVCAR-4 = system: OVCAR-4
RXF 393 = system: RXF 393
SK-MEL-28 = system: SK-MEL-28
SK-MEL-2 = system: SK-MEL-2
SK-MEL-5 = system: SK-MEL-5
TK-10 = system: TK-10
U-251 = system: U-251
UACC-62 = system: UACC-62
HCT-116 = system: HCT-116

Measured: GI50

CCOC(=O)C1C(c2ccc(Cl)cc2Cl)NC(c2ccc(C)cc2)C(C(=O)OC)S1(=O)=O (stereo unspecified)
inactive: A498 > 100 µM | COLO 205 > 100 µM | HT-29 > 100 µM | K562 13.3 µM | NCI-H226 76.4 µM | NCI-H460 37.7 µM | OVCAR-4 > 100 µM | RXF 393 > 100 µM | SK-MEL-28 > 100 µM | SK-MEL-2 95.1 µM | SK-MEL-5 87.5 µM | TK-10 > 100 µM | U-251 > 100 µM | UACC-62 53.1 µM

C=C1C(=O)OC2C/C(C)=C/CC/C(C)=C/CCC3(COC(C)=O)OC3CC12 (stereo unspecified)
inactive: A498 13.8 µM | COLO 205 4.55 µM | HCT-116 1.84 µM | HT-29 8.32 µM | K562 5.68 µM | NCI-H460 12.7 µM | OVCAR-4 26.7 µM | RXF 393 2.51 µM | SK-MEL-28 11.1 µM | SK-MEL-2 3.33 µM | SK-MEL-5 14.9 µM | TK-10 7.14 µM | U-251 11.2 µM | UACC-62 11.8 µM

Cc1cc(Cl)ccc1NC(=O)CCCC(=O)C1C/C(=N/O)CC/C1=N\O (stereo unspecified)
inactive: A498 > 100 µM | COLO 205 > 100 µM | HCT-116 > 100 µM | HT-29 > 100 µM | K562 > 100 µM | NCI-H226 > 100 µM | NCI-H460 > 100 µM | OVCAR-4 > 100 µM | SK-MEL-28 > 100 µM | SK-MEL-2 > 100 µM | SK-MEL-5 > 100 µM | TK-10 > 100 µM | U-251 > 100 µM | UACC-62 > 100 µM

C#CC(C)(C)Oc1cc(O)c2c(=O)c3ccccc3n(C)c2c1
inactive: A498 > 100 µM | COLO 205 > 100 µM | HCT-116 > 100 µM | HT-29 34 µM | K562 > 100 µM | NCI-H226 > 100 µM | NCI-H460 24.5 µM | OVCAR-4 > 100 µM | RXF 393 > 100 µM | SK-MEL-28 > 100 µM | SK-MEL-2 > 100 µM | SK-MEL-5 > 100 µM | TK-10 > 100 µM | U-251 42.1 µM | UACC-62 > 100 µM

O=C(NCCCCCCCCCCCCNC(=O)c1cccc2ccccc12)c1cccc2ccccc12
inactive: A498 > 47.9 µM | COLO 205 > 100 µM | HCT-116 > 57.9 µM | HT-29 > 100 µM | K562 > 100 µM | NCI-H226 > 49.9 µM | NCI-H460 > 90.8 µM | OVCAR-4 6.24 µM | RXF 393 > 100 µM | SK-MEL-28 > 100 µM | SK-MEL-2 > 58.1 µM | SK-MEL-5 > 100 µM | TK-10 > 52.7 µM | U-251 > 36.7 µM | UACC-62 > 100 µM

N#Cc1cccc2c1Nc1ccccc1S2
inactive: A498 > 100 µM | COLO 205 > 100 µM | HCT-116 > 100 µM | HT-29 > 100 µM | K562 > 100 µM | NCI-H226 19.1 µM | NCI-H460 > 100 µM | OVCAR-4 > 100 µM | RXF 393 32.2 µM | SK-MEL-28 > 100 µM | SK-MEL-2 87.1 µM | SK-MEL-5 > 100 µM | TK-10 > 100 µM | U-251 92.7 µM | UACC-62 60.7 µM

Cc1ccc(S(=O)(=O)NC(=O)C#CCOC2CCCCO2)cc1 (stereo unspecified)
inactive: A498 > 100 µM | HCT-116 > 100 µM | HT-29 > 100 µM | K562 > 100 µM | NCI-H226 > 100 µM | NCI-H460 > 100 µM | OVCAR-4 > 100 µM | RXF 393 > 100 µM | SK-MEL-28 > 100 µM | SK-MEL-2 82.8 µM | SK-MEL-5 > 100 µM | TK-10 > 100 µM | U-251 > 100 µM | UACC-62 > 100 µM

COc1cc(Nc2cnc3cc(C(F)(F)F)ccc3n2)cc(OC)c1OC
inactive: COLO 205 > 100 µM | HCT-116 > 100 µM | HT-29 > 100 µM | NCI-H226 > 100 µM | NCI-H460 > 100 µM | RXF 393 > 100 µM | SK-MEL-28 > 100 µM | SK-MEL-2 > 100 µM | TK-10 > 100 µM | U-251 > 100 µM | UACC-62 > 100 µM

O=C(Nc1ccccc1C(=O)NC(=O)c1ccccc1NC(=O)c1ccccc1)c1ccccc1
inactive: A498 15.1 µM | COLO 205 1.46 µM | HCT-116 3.45 µM | HT-29 2.22 µM | K562 4.83 µM | NCI-H460 7.71 µM | OVCAR-4 3.41 µM | RXF 393 2.88 µM | SK-MEL-28 3.13 µM | SK-MEL-2 1.87 µM | SK-MEL-5 2.9 µM | TK-10 10.9 µM | U-251 3.49 µM | UACC-62 2.07 µM
